T1: Dorea PTS_EIIBCA (I9 PTS_EIIBCA) (uncultured bacterium, UniProt S6CP27)
T1 construct: full-length single multidomain protein (domains B, C, A; ten predicted transmembrane helices)
T1 sequence (S6CP27 1-643): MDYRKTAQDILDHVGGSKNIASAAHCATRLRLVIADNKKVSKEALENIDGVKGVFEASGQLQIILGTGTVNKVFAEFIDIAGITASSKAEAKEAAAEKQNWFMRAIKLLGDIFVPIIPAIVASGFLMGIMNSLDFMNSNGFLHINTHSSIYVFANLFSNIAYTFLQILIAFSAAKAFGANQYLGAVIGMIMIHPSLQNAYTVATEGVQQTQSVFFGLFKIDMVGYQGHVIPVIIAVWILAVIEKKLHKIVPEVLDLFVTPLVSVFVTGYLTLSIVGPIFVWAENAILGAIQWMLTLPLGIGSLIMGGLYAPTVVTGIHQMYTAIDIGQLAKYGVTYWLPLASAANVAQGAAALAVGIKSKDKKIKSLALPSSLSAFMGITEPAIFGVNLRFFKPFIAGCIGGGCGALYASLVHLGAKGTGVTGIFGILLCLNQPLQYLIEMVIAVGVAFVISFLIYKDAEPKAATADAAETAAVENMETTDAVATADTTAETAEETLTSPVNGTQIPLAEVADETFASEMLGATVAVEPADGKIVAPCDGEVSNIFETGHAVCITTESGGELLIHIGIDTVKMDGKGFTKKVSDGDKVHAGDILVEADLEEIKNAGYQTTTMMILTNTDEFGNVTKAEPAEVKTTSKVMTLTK

B1: Dorea PTS_EIIBCA (I9 PTS_EIIBCA) (uncultured bacterium) (protein)
chain: T1 sequence (S6CP27 1-643)
notes: full-length single multidomain protein (domains B, C, A; ten predicted transmembrane helices)

Legend:
[1] = target: T1, Dorea PTS_EIIBCA (I9 PTS_EIIBCA); experiment: binding saturation on washed crude membranes; unbound kestose by HPAEC-PAD
[2] = substrate: OC[C@H]1O[C@@](CO)(OC[C@@]2(O[C@H]3O[C@H](CO)[C@@H](O)[C@H](O)[C@H]3O)O[C@H](CO)[C@@H](O)[C@@H]2O)[C@@H](O)[C@@H]1O; experiment: uptake saturation in intact E. coli cells; residual kestose by HPAEC-PAD; assay type: cell-based, uncultured bacterium; conditions: I9min_PTS cells (E. coli EPI100, host EI and HPr/FPr complement), TBS pH 7.0, 37°C, transport
From the text: uptake saturation in intact E. coli cells; residual kestose by HPAEC-PAD on Dorea PTS_EIIBCA (I9 PTS_EIIBCA) | The affinity constants of kestose uptake by I9min_PTS cells (Km)

Molecule | Kd [1] | Km [2]
OC[C@H]1O[C@@](CO)(OC[C@@]2(O[C@H]3O[C@H](CO)[C@@H](O)[C@H](O)[C@H]3O)O[C@H](CO)[C@@H](O)[C@@H]2O)[C@@H](O)[C@@H]1O [kestose] | 51 ± 12 µM | 
B1 |  | 266 ± 165 µM

From PMC6952197, “Harvesting of Prebiotic Fructooligosaccharides by Nonbeneficial Human Gut Bacteria” (mSphere, 2020)
